We go through 21 molecules from ChEMBL document CHEMBL1126274, “Mapping the binding site of tissue kallikrein: preparation and testing of all possible substrate analog inhibitors homologous with the sequence of kininogen between Ser386 and Gln392” (J Med Chem, 1992).

Residues, ends and D or L forms follow the SMILES beside them.

As a reminder, the Ki is the equilibrium dissociation constant of an inhibitor or competing ligand from its target. Read a high Ki as a looser hold on the target.

The first experiment deals with T1, Kallikrein 1 (Sus scrofa) (UniProt O97506).
T1 sequence (whole entry): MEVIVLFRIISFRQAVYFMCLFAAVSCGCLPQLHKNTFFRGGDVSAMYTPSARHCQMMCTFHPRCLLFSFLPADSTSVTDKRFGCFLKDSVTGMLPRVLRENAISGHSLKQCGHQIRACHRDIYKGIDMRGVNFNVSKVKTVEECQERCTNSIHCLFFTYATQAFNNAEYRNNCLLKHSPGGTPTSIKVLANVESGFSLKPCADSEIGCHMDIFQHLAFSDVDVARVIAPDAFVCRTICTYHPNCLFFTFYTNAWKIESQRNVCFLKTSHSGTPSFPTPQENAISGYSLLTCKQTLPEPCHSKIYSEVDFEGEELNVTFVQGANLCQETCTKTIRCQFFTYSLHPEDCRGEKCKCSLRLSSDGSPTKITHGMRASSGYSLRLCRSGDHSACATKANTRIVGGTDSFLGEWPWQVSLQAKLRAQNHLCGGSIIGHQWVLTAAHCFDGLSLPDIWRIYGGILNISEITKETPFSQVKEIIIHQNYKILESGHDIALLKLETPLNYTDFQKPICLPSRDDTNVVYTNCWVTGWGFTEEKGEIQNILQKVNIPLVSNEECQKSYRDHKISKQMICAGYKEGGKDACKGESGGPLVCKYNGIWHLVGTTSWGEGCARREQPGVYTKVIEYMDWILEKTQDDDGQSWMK
Nature of the experiment: Compound was evaluated for inhibitory activity against beta-kallikrein; No inhibition at 1 mM concentration.
For `CC(=O)N[C@@H](Cc1ccccc1)C(=O)N[C@@H](CCCN=C(N)N)C(N)=O` (Ac-Phe-Arg-NH2), the inhibition result is “No inhibition”. On the same count and under the same terms, the same measure for `CC(=O)N1CCC[C@H]1C(=O)N[C@@H](Cc1ccccc1)C(N)=O` (Ac-Pro-Phe-NH2): “No inhibition”.

The target in another experiment is T2, Glandular kallikrein (Sus scrofa, UniProt P00752).
T2 sequence (P00752 whole entry): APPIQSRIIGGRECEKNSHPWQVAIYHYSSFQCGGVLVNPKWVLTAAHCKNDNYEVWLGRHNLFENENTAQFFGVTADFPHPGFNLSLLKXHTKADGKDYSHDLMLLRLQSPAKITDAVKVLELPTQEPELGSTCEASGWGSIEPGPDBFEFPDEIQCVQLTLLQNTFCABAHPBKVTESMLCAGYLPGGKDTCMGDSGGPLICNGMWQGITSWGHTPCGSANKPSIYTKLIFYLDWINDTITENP
Description: Inhibitory activity against beta-kallikrein.
Ac-SPFRS-NH2 came in with a Ki of 223 µM.

Molecule `CC(=O)N[C@@H](Cc1ccccc1)C(=O)N[C@@H](CCCNC(=N)N)C(=O)N[C@@H](CO)C(=O)N[C@H](C(N)=O)C(C)C` (Ac-FRSV-NH2) returned an inhibitory constant (Ki) of 479 µM. Same read-out and setting: the same measure for Ac-PFRSVQ-NH2: 167 µM; for Ac-SPFRSVQ-NH2: 101 µM; for `CC(=O)N[C@@H](Cc1ccccc1)C(=O)N[C@@H](CCCNC(=N)N)C(=O)N[C@@H](CO)C(N)=O` (Ac-Phe-Arg-Ser-NH2): 718 µM. Consider `CC(=O)N1CCC[C@H]1C(=O)N[C@@H](Cc1ccccc1)C(=O)N[C@@H](CCCN=C(N)N)C(=O)N[C@@H](CO)C(N)=O` (Ac-PFRS-NH2), for which the Ki is 578 µM. Still for that read-out and setting: the same measure for `CC(=O)N[C@@H](CO)C(=O)N1CCC[C@H]1C(=O)N[C@@H](Cc1ccccc1)C(=O)N[C@@H](CCCN=C(N)N)C(N)=O` (Ac-SPFR-NH2): 2290 µM; for Ac-FRSVQ-NH2: 230 µM; for `CC(=O)N[C@@H](CCCNC(=N)N)C(=O)N[C@@H](CO)C(=O)N[C@H](C(=O)N[C@@H](CCC(N)=O)C(N)=O)C(C)C` (Ac-RSVQ-NH2): 950 µM. As for Ac-PFRSV-NH2, the Ki was 266 µM. Same read-out and setting: to Ac-SPFRSV-NH2 belongs 135 µM.

For a further experiment, the target named is T1, Kallikrein 1 (Sus scrofa). Description: Compound was evaluated for inhibitory activity against beta-kallikrein; No inhibition at 28 mM concentration.
With `CC(=O)N[C@H](C(=O)N[C@@H](CCC(N)=O)C(N)=O)C(C)C` (Ac-Val-Gln-NH2), the inhibition result was “No inhibition”.

In another experiment the target is T1, Kallikrein 1 (Sus scrofa). Nature of the experiment: Compound was evaluated for inhibitory activity against beta-kallikrein; No inhibition at 0.5 mM concentration.
Regarding `CC(=O)N1CCC[C@H]1C(=O)N[C@@H](Cc1ccccc1)C(=O)N[C@@H](CCCN=C(N)N)C(N)=O` (Ac-Pro-Phe-Arg-NH2), the inhibition entry was “No inhibition”. On the same count and under the same terms, to `CC(=O)N[C@@H](CO)C(=O)N1CCC[C@H]1C(=O)N[C@@H](Cc1ccccc1)C(N)=O` (Ac-Ser-Pro-Phe-NH2) belongs “No inhibition”.

Consider `CC(=O)N[C@@H](CCCN=C(N)N)C(=O)N[C@@H](CO)C(N)=O` (Ac-Arg-Ser-NH2), for which the inhibition entry is “No inhibition”. The same measure, in the same setting: to `CC(=O)N[C@@H](CCCN=C(N)N)C(=O)N[C@@H](CO)C(=O)N[C@H](C(N)=O)C(C)C` (Ac-Arg-Ser-Val-NH2) belongs “No inhibition”; to `CC(=O)N[C@@H](CO)C(=O)N[C@H](C(N)=O)C(C)C` (Ac-Ser-Val-NH2), “No inhibition”.

As for `CC(=O)N[C@@H](CO)C(=O)N1CCC[C@H]1C(N)=O` (Ac-Ser-Pro-NH2), the inhibition result was “No inhibition”.

In a further experiment the target is T1, Kallikrein 1 (Sus scrofa). Nature of the experiment: Compound was evaluated for inhibitory activity against beta-kallikrein; No inhibition at 20 mM concentration.
For `CC(=O)N[C@@H](CO)C(=O)N[C@H](C(=O)N[C@@H](CCC(N)=O)C(N)=O)C(C)C` (Ac-Ser-Val-Gln-NH2), the inhibition result is “No inhibition”.
